Assay results as given in patent US8197865B2, “Methods and compositions for modulating hair growth or regrowth” (Access Business Group International LLC, priority 2005, dated 2012).

Key:
[1] = system: DHT synthesis in DU-145 cells; experiment: Dihydrotestosterone (DHT) synthesis by human prostate cells (DU-145), DHT ELISA; format: cell-based; conditions: for Average % DHT Synthesis Observed: % control vs DHT in untreated control cells, testosterone 1 nM, 6 hours, test concentrations typically 0.1, 1, 10 μg/ml
[2] = system: VEGF secretion by human dermal papilla cells; experiment: VEGF secretion by human dermal papilla cells, ELISA; format: cell-based; conditions: for Average % VEGF Secretion: % control vs untreated control cells, overnight, typically 0.1, 1, 10 μg/ml
Description: (§1) The ability of each of the ingredients in the compositions of the present invention to stimulate or increase secretion of growth factors, such as VEGF and KGF was measured. One of ordinary skill in the art will appreciate that there are numerous methods for measuring the ability of a substance to stimulate secretion of a growth factor. One example of such a method is set forth below and described in Lachgar S., et al., 1998. “Minoxidil upregulates the expression of vascular endothelial growth factor in human hair dermal papilla cells.” Br J. Dermatol. 138:407-11, the entire contents of which are incorporated by reference herein.
(§2) For example, to measure the ability of a compound to stimulate secretion of a growth factor, 100 mg of each test sample in powder form was measured. A 50 mg/ml total extract of the sample was then prepared by sequential addition of DMSO:ethanol:water in a ratio of 5:3:2. One of ordinary skill in the art will understand that other amounts of sample may be used. For example, to prepare a 100 mg sample, 1 mL DMSO, 0.6 ml ethanol, and 0.4 ml water are mixed together.
(§3) This solution is extensively mixed by vortexing and incubating for 10 minutes in a sonic water bath. Each sample ingredient is diluted from the stock concentration of 50 mg/ml to a test concentration (i.e., typically, 0.1, 1, and 10 μg/ml) in tissue culture media.
(§4) The effect of each test sample ingredient may be measured using human dermal papilla cells, which may be purchased from Cell Applications (San Diego, Calif.). In particular, the cells are plated at 3.5×10^4/well in a standard 24 well tissue culture plate using a proprietary medium supplied by the company. Following plating, the cells are incubated overnight. The following day, the media in the wells is aspirated and replaced with fresh media containing the diluted sample ingredient. The cells are again incubated overnight with the samples.
(§5) Growth factors in the cell culture supernatants are assayed using commercially available ELISA kits according to the manufacture's specifications. For example, an ELISA assay may be run to detected either KGF, VEGF, or both. An ELISA kit for detecting KGF may be purchased from R&D Systems (Minneapolis, Minn.). An ELISA kit for detecting VEGF may be purchased from Biosource International (Camarillo, Calif.).
(§6) Data are reported as % control compared to the level of growth factor secreted from untreated control cells.

[3] = system: KGF secretion by human dermal papilla cells; experiment: KGF secretion by human dermal papilla cells, ELISA; format: cell-based; conditions: for Average % KGF Secretion: % control vs untreated control cells, overnight, typically 0.1, 1, 10 μg/ml
Description: as §1, §2, §3, §4, §5, §6

proteasome = experiment: Proteasome inhibition, fluorescent substrate kit; format: biochemical; conditions: % control vs proteasome activity without inhibitor or test sample; test concentration given as 50 mg/ml
Description: The ability of each of the ingredients in the compositions of the present invention to inhibit proteasome activity was measured. One of ordinary skill in the art will appreciate that there are numerous methods for measuring the ability of a substance to inhibit proteasome activity. One example of such a method is set forth below and described in U.S. Pat. No. 6,410,512, the entire contents of which are incorporated by reference herein.
For example, to measure the ability of a compound to inhibit proteasome activity, 100 mg of each test sample in neat form was measured. A 50 mg/ml total extract of the sample was then prepared by sequential addition of DMSO:ethanol:water in a ratio of 5:3:2. One of ordinary skill in the art will understand that other amounts of sample may be used. For example, to prepare a 100 mg sample, 1 mL DMSO, 0.6 ml ethanol, and 0.4 ml water are mixed together.
This solution is extensively mixed by vortexing and incubating for 10 minutes in a sonic water bath. Each sample ingredient is diluted from the stock concentration to a test concentration of 50 mg/ml in proteasome reaction buffer media.
Inhibition of proteasome activity may be assayed using a proteasome kit that is commercially available, for example from Boston Biochem (Boston, Mass.). Test sample ingredients are first added to the proteasome provided with the kit. The fluorescent proteasome substrate is then added and cleavage of the substrate by the proteasome is monitored using a fluorescence plate reader. Data are expressed as % control compared to proteasome activity without any inhibitor or test sample added.
as §6

| Compound | Average % DHT Synthesis Observed [1] [%] | Average % VEGF Secretion [2] [%] | Average % KGF Secretion [3] [%] | Average % Proteasome Activity (proteasome) [%] | Effect on VEGF secretion, in words (summary of Table 3) [2] | Effect on KGF secretion, in words (summary of Table 3) [3] | Effect on DHT synthesis, in words (summary of Table 2) [1] |
| --- | --- | --- | --- | --- | --- | --- | --- |
| O=c1cc(-c2ccc(O)c(-c3c(O)cc(O)c4c(=O)cc(-c5ccc(O)cc5)oc34)c2)oc2cc(O)cc(O)c12 [Amentoflavone] | 163.9 | 186.2 | 209.5 |  |  |  |  |
| CC1=C(/C=C/C(C)=C/C=C/C(C)=C/C=C/C=C(C)/C=C/C=C(C)/C=C/C2=C(C)C(=O)[C@@H](O)CC2(C)C)C(C)(C)C[C@H](O)C1=O [Astaxanthin] | 103.9 | 249.4 | 327.1 | 114.0 | most potent stimulators of VEGF |  |  |
| C[C@@H]1O[C@@H](O[C@H]2C(=O)c3c(O)cc(O)cc3O[C@@H]2c2ccc(O)c(O)c2)[C@H](O)[C@H](O)[C@H]1O [Astilbin] | 78.0 | 122.9 | 85.4 | 47.7 |  | most potent inhibitors of KGF secretion |  |
| O=C(CCCCc1ccc2c(c1)OCO2)N1CCCCC1 [Cosmoperine ™, tetrahydropiperine] | 130.1 | 172.5 | 75.1 | 67.6 |  | most potent inhibitors of KGF secretion |  |
| O=c1cc(-c2ccc(O)c(O)c2)oc2cc(O)cc(O)c12 [Luteolin] | 96.2 | 123.2 | 147.8 | 76.4 |  |  |  |
| disodium lauraminodipropionate tocopheryl phosphate [Vital ET ™] | 72.1 | 107.9 | 103.0 | 68.3 |  |  | most potent inhibitors of DHT synthesis |
